According to patent US9896441B2 (Lycera Corporation, priority 2014, dated 2018):
Blank lines part the entries; values can stand above or below the compound they belong to.

What was measured:
RORγ-LBD = biological target: T1, RORγ-LBD (Homo sapiens, UniProt P51449); assay: RORγ-Ligand Binding Domain (LBD) TR-FRET Assay; assay type: biochemical; conditions: for TR-FRET Assay Max Response: maximum response;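 on TR-FRET Assay Max Response: 665/615 nm signal ratio set to 100 without ursolic acid or test compound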
T1 construct: made in house; host or cells: SF9 cells (baculovirus); used as diluted lysate
T1 sequence (P51449 269-508 limits assumed): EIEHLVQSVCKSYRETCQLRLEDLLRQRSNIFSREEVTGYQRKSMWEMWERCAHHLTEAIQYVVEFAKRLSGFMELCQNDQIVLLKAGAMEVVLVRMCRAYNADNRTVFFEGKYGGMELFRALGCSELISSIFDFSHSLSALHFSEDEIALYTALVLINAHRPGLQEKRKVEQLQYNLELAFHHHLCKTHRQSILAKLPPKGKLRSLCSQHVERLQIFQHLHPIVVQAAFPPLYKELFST
In short: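 His-tagged RORγ-LBD from SF9 baculovirus lysate, ~3 nM final, in 50 mM Tris pH 7.0, 50 mM KCl, 1 mM EDTA, 0.1 mM DTT, 0.01% BSA. Biotinylated SRC1 LXXLL peptide at 200 nM final with 2 μM ursolic acid; TR-FRET read-out, 1% DMSO final.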

Gal4-RORγ-LBD = biological target: T2, Gal4-RORγ-LBD (Homo sapiens, UniProt P51449); assay: Gal4-RORγ Luciferase Reporter Assay in HEK-293T Cells; assay type: cell-based; conditions: HEK-293 cells; for Gal4-RORγ Assay Max Response: maximum response
T2 construct: expressed in transfected cells
T2 sequence (P51449 269-508 limits assumed): T1 sequence (P51449 269-508 limits assumed)
In short: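 HEK-293 cells were co-transfected with Gal4-RORγ-LBD and a Gal4-luciferase reporter, then exposed overnight at 37 °C to compounds with […] ursolic acid present (0.2% DMSO). Luminescence was read with One-Glo after 10 min at RT, untreated signal was set as 100, and Max Response was taken as the upper plateau of a 4-parameter logistic fit.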

[1] = luciferase reporter, in presence of ursolic acid
[2] = luciferase reporter, with ursolic acid
[3] = with 2 μM ursolic acid (RORγ antagonist), highest test concentration 10 μM
[4] = ursolic acid present, luciferase readout

SMILES: CCOc1nn(CC)cc1S(=O)(=O)N1C[C@H](CCC(=O)O)Oc2ccc(/C=C/c3ccccc3SC)cc21 [Example 89AU, (S,E)-3-(4-((3-ethoxy-1-ethyl-1H-pyrazol-4-yl)sulfonyl)-6-(2-(methylthio)styryl)-3,4-dihydro-2H-benzo[b][1,4]oxazin-2-yl)propanoic acid]
EC50 (RORγ-LBD; RORγ-LBD TR-FRET): < 0.5 µM | EC50 (Gal4-RORγ-LBD; [2]): < 0.5 µM

SMILES: COC(=O)CC[C@H]1CN(S(=O)(=O)c2cccc(C(C)(F)F)c2)c2cc(/C=C/c3c(Cl)cccc3C(F)(F)F)ccc2O1 [Example 83, Methyl (S,E)-3-(6-(2-chloro-6-(trifluoromethyl)styryl)-4-((3-(1,1-difluoroethyl)phenyl)sulfonyl)-3,4-dihydro-2H-benzo[b][1,4]oxazin-2-yl)propanoate]
EC50 (RORγ-LBD; RORγ-LBD TR-FRET): < 0.5 µM | EC50 (Gal4-RORγ-LBD; [2]): 0.5 to 5 µM

SMILES: C/C(=C\c1ccc2c(c1)N(S(=O)(=O)c1cccc(C(F)(F)F)c1)C[C@H](CNC(=O)N1CCOCC1)O2)c1c(F)cccc1Cl [Example 116N, (S,E)-N-((6-(2-(2-chloro-6-fluorophenyl)prop-1-en-1-yl)-4-((3-(trifluoromethyl)phenyl)sulfonyl)-3,4-dihydro-2H-benzo[b][1,4]-oxazin-2-yl)methyl)morpholine-4-carboxamide]
EC50 (RORγ-LBD; [3]): < 0.5 µM | EC50 (Gal4-RORγ-LBD; [4]): < 0.5 µM

SMILES: COC(=O)CC[C@H]1CN(S(=O)(=O)c2cccc(OC(F)F)c2)c2cc(/C=C(\C)c3c(F)cccc3Cl)cc(F)c2O1 [Example 51, Methyl (S,E)-3-(6-(2-(2-chloro-6-fluorophenyl)prop-1-en-1-yl)-4-((3-(difluoromethoxy)phenyl)sulfonyl)-8-fluoro-3,4-dihydro-2H-benzo[b][1,4]oxazin-2-yl)propanoate]
EC50 (RORγ-LBD; RORγ-LBD TR-FRET): < 0.5 µM | EC50 (Gal4-RORγ-LBD; [2]): < 0.5 µM

SMILES: COC(=O)CC[C@H]1CN(S(=O)(=O)c2cccc(C(F)(F)F)c2)c2cc(/C=C(\C)c3ccccc3)ccc2O1 [Example 86AB, (S,E)-methyl 3-(6-(2-phenylprop-1-en-1-yl)-4-((3-(trifluoromethyl)-phenyl)sulfonyl)-3,4-dihydro-2H-benzo[b][1,4]oxazin-2-yl)propanoate]
EC50 (RORγ-LBD; RORγ-LBD TR-FRET): < 0.5 µM | EC50 (Gal4-RORγ-LBD; [2]): 0.5 to 5 µM

SMILES: CCOc1ncc(C(F)(F)F)cc1S(=O)(=O)N1C[C@H](CCC(=O)O)Oc2ccc(C=C3CCCCC3)cc21 [Example 95B, (S)-3-(6-(cyclohexylidenemethyl)-4-((2-ethoxy-5-(trifluoromethyl)pyridin-3-yl)sulfonyl)-3,4-dihydro-2H-benzo[b][1,4]oxazin-2-yl)propanoic acid]
EC50 (RORγ-LBD; RORγ-LBD TR-FRET): < 0.5 µM | EC50 (Gal4-RORγ-LBD; [2]): 0.5 to 5 µM

SMILES: C/C(=C\c1cc(F)c2c(c1)N(S(=O)(=O)c1cccc(OC(F)F)c1)C[C@H](CCC(=O)O)O2)c1c(F)cccc1Cl [Example 52, (S,E)-3-(6-(2-(2-Chloro-6-fluorophenyl)prop-1-en-1-yl)-4-((3-(difluoromethoxy)phenyl)sulfonyl)-8-fluoro-3,4-dihydro-2H-benzo[b][1,4]oxazin-2-yl)propanoic acid]
EC50 (RORγ-LBD; RORγ-LBD TR-FRET): < 0.5 µM | EC50 (Gal4-RORγ-LBD; [2]): 0.5 to 5 µM

SMILES: COC(=O)CC[C@H]1CN(S(=O)(=O)c2cccc(OC(F)F)c2)c2cc(/C=C/c3ccccn3)ccc2O1 [Example 89D, (S,E)-methyl 3-(4-((3-(difluoromethoxy)phenyl)sulfonyl)-6-(2-(pyridin-2-yl)vinyl)-3,4-dihydro-2H-benzo[b][1,4]oxazin-2-yl)propanoate]
EC50 (RORγ-LBD; RORγ-LBD TR-FRET): < 0.5 µM | EC50 (Gal4-RORγ-LBD; [2]): 0.5 to 5 µM

SMILES: O=C(O)CC[C@H]1CN(S(=O)(=O)c2cn(C3CC3)nc2OCCO)c2cc(/C=C/c3c(Cl)cccc3C(F)(F)F)ccc2O1 [Example 89EG, (S,E)-3-(6-(2-chloro-6-(trifluoromethyl)styryl)-4-((1-cyclopropyl-3-(2-hydroxyethoxy)-1H-pyrazol-4-yl)sulfonyl)-3,4-dihydro-2H-benzo[b][1,4]oxazin-2-yl)propanoic acid]
EC50 (RORγ-LBD; RORγ-LBD TR-FRET): < 0.5 µM | EC50 (Gal4-RORγ-LBD; [2]): 0.5 to 5 µM

SMILES: CCOc1nn(CC)cc1S(=O)(=O)N1C[C@H](CCC(=O)O)Oc2ccc(/C=C/c3ccccc3C)cc21 [Example 89AS, (S,E)-3-(4-((3-ethoxy-1-ethyl-1H-pyrazol-4-yl)sulfonyl)-6-(2-methylstyryl)-3,4-dihydro-2H-benzo[b][1,4]oxazin-2-yl)propanoic acid]
EC50 (RORγ-LBD; RORγ-LBD TR-FRET): < 0.5 µM | EC50 (Gal4-RORγ-LBD; [2]): > 10 µM

SMILES: COc1cc(S(=O)(=O)N2CCCc3ccc(OCc4c(C)cccc4Cl)cc32)ccc1F [Example 25W, 7-((2-chloro-6-methylbenzyl)oxy)-1-((4-fluoro-3-methoxyphenyl)sulfonyl)-1,2,3,4-tetrahydroquinoline]
EC50 (RORγ-LBD; RORγ-LBD TR-FRET): < 0.5 µM | EC50 (Gal4-RORγ-LBD; [2]): < 0.5 µM

SMILES: CCOc1nn(CC)cc1S(=O)(=O)N1C[C@H](CCC(=O)OC)Oc2ccc(/C=C/c3ncccc3Cl)cc21 [Example 89DJ, methyl (S,E)-3-(6-(2-(3-chloropyridin-2-yl)vinyl)-4-((3-ethoxy-1-ethyl-1H-pyrazol-4-yl)sulfonyl)-3,4-dihydro-2H-benzo[b][1,4]oxazin-2-yl)propanoate]
EC50 (RORγ-LBD; RORγ-LBD TR-FRET): < 0.5 µM | EC50 (Gal4-RORγ-LBD; [2]): 0.5 to 5 µM

SMILES: C/C(=C\c1ccc2c(c1)N(S(=O)(=O)c1cccc(C(F)(F)F)c1)C[C@H](CCNS(C)(=O)=O)O2)c1c(F)cccc1Cl [Example 114, (S,E)-N-(2-(6-(2-(2-Chloro-6-fluorophenyl)prop-1-en-1-yl)-4-((3-(trifluoromethyl)phenyl)sulfonyl)-3,4-dihydro-2H-benzo[b][1,4]oxazin-2-yl)ethyl)methanesulfonamide]
EC50 (RORγ-LBD; RORγ-LBD TR-FRET assay): < 0.5 µM | TR-FRET Assay Max Response (RORγ-LBD; RORγ-LBD TR-FRET assay): *** (a value in the range of greater than 150 to 200) | EC50 (Gal4-RORγ-LBD; [1]): < 0.5 µM | Gal4-RORγ Assay Max Response (Gal4-RORγ-LBD; [1]): ** (a value in the range of greater than 90 to 150)

Continued, in another order:

EC50 (RORγ-LBD; RORγ-LBD TR-FRET assay): < 0.5 µM | EC50 (Gal4-RORγ-LBD; [1]): 0.5 to 5 µM
SMILES: C/C(=C\c1ccc2c(c1)N(S(=O)(=O)c1cccc(C(F)(F)F)c1)C[C@H](CCN1CCC(O)C1)O2)c1c(F)cccc1Cl (stereo partly drawn) [Example 119C, 1-(2-((S)-6-((E)-2-(2-chloro-6-fluorophenyl)prop-1-en-1-yl)-4-((3-(trifluoromethyl)-phenyl)sulfonyl)-3,4-dihydro-2H-benzo[b][1,4]oxazin-2-yl)ethyl)pyrrolidin-3-ol]
TR-FRET Assay Max Response (RORγ-LBD; RORγ-LBD TR-FRET assay): *** (a value in the range of greater than 150 to 200) | Gal4-RORγ Assay Max Response (Gal4-RORγ-LBD; [1]): ** (a value in the range of greater than 90 to 150)

EC50 (RORγ-LBD; RORγ-LBD TR-FRET assay): < 0.5 µM | EC50 (Gal4-RORγ-LBD; [1]): 0.5 to 5 µM
SMILES: CC(=O)N[C@H]1Cc2ccc(/C=C(\C)c3c(F)cccc3Cl)cc2N(S(=O)(=O)c2cccc(C(F)(F)F)c2)C1 [Example 167, (S,E)-N-(7-(2-(2-chloro-6-fluorophenyl)prop-1-en-1-yl)-1-((3-(trifluoromethyl)phenyl)sulfonyl)-1,2,3,4-tetrahydroquinolin-3-yl)acetamide]
TR-FRET Assay Max Response (RORγ-LBD; RORγ-LBD TR-FRET assay): *** (a value in the range of greater than 150 to 200) | Gal4-RORγ Assay Max Response (Gal4-RORγ-LBD; [1]): ** (a value in the range of greater than 90 to 150)

EC50 (RORγ-LBD; [3]): < 0.5 µM | EC50 (Gal4-RORγ-LBD; [4]): < 0.5 µM
SMILES: C/C(=C\c1ccc2c(c1)N(S(=O)(=O)c1cccc(C(F)(F)F)c1)C[C@H](CCC(=O)N(C)CCC(=O)O)O2)c1c(F)cccc1Cl [Example 129Q, (S,E)-3-(3-(6-(2-(2-chloro-6-fluorophenyl)prop-1-en-1-yl)-4-((3-(trifluoromethyl)-phenyl)sulfonyl)-3,4-dihydro-2H-benzo[b][1,4]-oxazin-2-yl)-N-methyl-propanamido)-propanoic acid]

EC50 (RORγ-LBD; [3]): < 0.5 µM | EC50 (Gal4-RORγ-LBD; [4]): < 0.5 µM
SMILES: CC/C(=C\c1ccc2c(c1)N(S(=O)(=O)c1cccc(C(F)(F)F)c1)C[C@H](CCC(=O)OC)O2)C(C)C [Example 191H, methyl (S,E)-3-(6-(2-ethyl-3-methylbut-1-en-1-yl)-4-((3-(trifluoromethyl)phenyl)sulfonyl)-3,4-dihydro-2H-benzo[b][1,4]-oxazin-2-yl)propanoate]

EC50 (RORγ-LBD; RORγ-LBD TR-FRET assay): < 0.5 µM | EC50 (Gal4-RORγ-LBD; [1]): 0.5 to 5 µM
SMILES: COc1cc(S(=O)(=O)N2C[C@H](CC(C)(C)C(=O)O)Cc3ccc(/C=C(\C)c4c(F)cccc4Cl)cc32)ccc1F [Example 154C, (S,E)-3-(7-(2-(2-chloro-6-fluorophenyl)prop-1-en-1-yl)-1-((4-fluoro-3-methoxyphenyl)sulfonyl)-1,2,3,4-tetrahydroquinolin-3-yl)-2,2-dimethylpropanoic acid]
TR-FRET Assay Max Response (RORγ-LBD; RORγ-LBD TR-FRET assay): ** (a value in the range of greater than 90 to 150) | Gal4-RORγ Assay Max Response (Gal4-RORγ-LBD; [1]): ** (a value in the range of greater than 90 to 150)

EC50 (RORγ-LBD; RORγ-LBD TR-FRET assay): < 0.5 µM | EC50 (Gal4-RORγ-LBD; [1]): < 0.5 µM
SMILES: CC(=O)N1CCN(C(=O)CC[C@H]2CN(S(=O)(=O)c3cccc(C(F)(F)F)c3)c3cc(/C=C(\C)c4c(F)cccc4Cl)ccc3O2)CC1 [Example 127J, (S,E)-1-(4-acetyl-piperazin-1-yl)-3-(6-(2-(2-chloro-6-fluorophenyl)prop-1-en-1-yl)-4-((3-(trifluoro-methyl)-phenyl)sulfonyl)-3,4-dihydro-2H-benzo[b]-[1,4]oxazin-2-yl)propan-1-one]
TR-FRET Assay Max Response (RORγ-LBD; RORγ-LBD TR-FRET assay): *** (a value in the range of greater than 150 to 200) | Gal4-RORγ Assay Max Response (Gal4-RORγ-LBD; [1]): ** (a value in the range of greater than 90 to 150)
